Measured values: patent US12498382B2, “Biomarkers for vitiligo” (INCYTE CORPORATION, priority 2019, dated 2025)

System: HaCaT cells
Test: Normalized expression of target genes in HaCaT cells stimulated with TNFα and IFNγ in presence/absence of JAK inhibitors (QuantiGene Plex)
Format: cell-based, human
Settings: for MFI, normalized expression of IYK2: gene IYK2; for MFI, normalized expression of IYK2 / MFI, normalized expression of TNF / MFI, normalized expression of VEGFA: HaCaT, normalized to HPRT1, mean ± standard error; for MFI, normalized expression of TNF: gene TNF; for MFI, normalized expression of VEGFA: gene VEGFA
Experimental: Transformed human keratinocyte (HaCaT) cells were purchased from AddexBio (Catalog #T0020001) and cultured as outlined in Example 5. […] After 48 hours, cell culture media was removed from 24 well plates and replaced with 250 uL of media containing serial diluted drug, then incubated for 15 minutes at 37° C./5% CO2. After drug incubation, 250 uL of combinatory stimulation containing Recombinant Human Interferon gamma (R&D Systems, Catalog #285-IF-100) and Recombinant Human Tumor Necrosis Factor alpha (R&D Systems, Catalog #210-TA-020) was added to plates. The final concentration of Recombinant Human Interferon gamma and Recombinant Human Tumor Necrosis Factor alpha was 25 ng/mL of each cytokine. Cytokine stimulation added to wells containing drug brought the final concentrations for each drug treatment to 25 nM, 50 nM, 100 nM, and 200 nM. Treated plates were mixed by gentle agitation for 30 seconds then incubated for 24 hours at 37° C./5% CO2. At the end of the 24 hour incubation media was immediately removed from each plate.
RNA was isolated from HaCaT cells using the QuantiGene Plex Assay reagents and protocols (Affymetrix, Catalog #QGP-232-M18042302) according to the manufacturer's guidelines. Cells were washed with 1×DPBS then lysed by incubation with provided QuantiGene lysis buffer for 30 minutes at 50-55° C. Cell lysates were incubated for 18-24 hours at 55° C. with capture beads and probe set designed to specifically hybridize to mRNA from targets of interest. Genes included housekeeping genes (e.g., HPRT1 and GAPDH) used for the normalization of the results. After the 18-24 hour incubation signal was amplified utilizing branched DNA methodologies, according to the manufacturer's procedures (Affymetrix, Catalog #QGP-232-M18042302). After hybridization and wash steps assay plate was read on the Luminex 200 and data were expressed as Net Median Fluorescence Intensity. Data was then normalized to the Net Median Fluorescence Intensity of the housekeeping gene HPRT1 (Table 14).

[1] = TNFα+IFNγ 25 ng/mL, Drug Conc 25 nM
[2] = TNFα+IFNγ 25 ng/mL, Drug Conc 50 nM
[3] = TNFα+IFNγ 25 ng/mL, Drug Conc 100 nM
[4] = TNFα+IFNγ 25 ng/mL, Drug Conc 200 nM
[5] = TNFα (25 ng/mL) and IFNγ (25 ng/mL), 1st (lowest, likely 25 nM) of 4 drug conc
[6] = TNFα (25 ng/mL) and IFNγ (25 ng/mL), 2nd (likely 50 nM) of 4 drug conc
[7] = TNFα (25 ng/mL) and IFNγ (25 ng/mL), 3rd (likely 100 nM) of 4 drug conc
[8] = TNFα (25 ng/mL) and IFNγ (25 ng/mL), 4th (highest, likely 200 nM) of 4 drug conc
[9] = drug without TNFα/IFNγ stimulation
[10] = no stimulation, Drug Conc 200 nM

Cc1n[nH]c(C)c1-c1cnn(C2(CC#N)CN(c3cc(F)c(C(=O)N[C@@H](C)C(F)(F)F)cc3F)C2)c1 [Cpd C, 4-[3-(Cyanomethyl)-3-(3′,5′-dimethyl-1H,1′H-4,4′-bipyrazol-1-yl)azetidin-1-yl]-2,5-difluoro-N-[(1S)-2,2,2-trifluoro-1-methylethyl]benzamide]
AREG normalized expression MFI [1]: 703.71 ± 20.69 | CCL17 normalized expression MFI [1]: 2.63 ± 0.4 | CCL18 normalized expression MFI [1]: 2.11 ± 0.28 | FLG normalized expression MFI [1]: 62.5 ± 8.63 | IL6 normalized expression MFI [1]: 135.32 ± 3.36 | IL8 normalized expression MFI [1]: 387.86 ± 17.53 | IL17A normalized expression MFI [1]: 0.87 ± 0.14 | IL22 normalized expression MFI [1]: 1.23 ± 0.21 | IL23A normalized expression MFI [1]: 42.15 ± 1.61 | IL31 normalized expression MFI [1]: 1.52 ± 0.37 | ILIA normalized expression MFI [1]: 1370.52 ± 35.28 | JAK1 normalized expression MFI [1]: 206.29 ± 6.84 | JAK2 normalized expression MFI [1]: 114.94 ± 2.16 | JAK3 normalized expression MFI [1]: 1.02 ± 0.19 | LOR normalized expression MFI [1]: 23.22 ± 10.14 | S100A7 normalized expression MFI [1]: 5.33 ± 1.21 | S100A12 normalized expression MFI [1]: 1.31 ± 0.16 | SERPINB3 normalized expression MFI [1]: 2.58 ± 0.41 | SERPINB4 normalized expression MFI [1]: 3.53 ± 0.5 | STAT1 normalized expression MFI [1]: 3103.89 ± 185.88 | STAT3 normalized expression MFI [1]: 1557.84 ± 58.15 | STAT4 normalized expression MFI [1]: 5.65 ± 0.44 | STAT5A normalized expression MFI [1]: 22.82 ± 1.77 | STAT5B normalized expression MFI [1]: 40.13 ± 1.97 | STAT6 normalized expression MFI [1]: 1020.89 ± 23.57 | AREG normalized expression MFI [2]: 719.73 ± 30.82 | CCL17 normalized expression MFI [2]: 2.94 ± 0.35 | CCL18 normalized expression MFI [2]: 2.13 ± 0.46 | FLG normalized expression MFI [2]: 59.01 ± 8.69 | IL6 normalized expression MFI [2]: 128.14 ± 6.83 | IL8 normalized expression MFI [2]: 369.89 ± 17.71 | IL17A normalized expression MFI [2]: 1.07 ± 0.16 | IL22 normalized expression MFI [2]: 1.4 ± 0.19 | IL23A normalized expression MFI [2]: 45.16 ± 2.92 | IL31 normalized expression MFI [2]: 1.59 ± 0.33 | ILIA normalized expression MFI [2]: 1308.7 ± 45.12 | JAK1 normalized expression MFI [2]: 194.2 ± 8.24 | JAK2 normalized expression MFI [2]: 107.16 ± 2.86 | JAK3 normalized expression MFI [2]: 0.99 ± 0.16 | LOR normalized expression MFI [2]: 32.81 ± 17.47 | S100A7 normalized expression MFI [2]: 3.62 ± 0.78 | S100A12 normalized expression MFI [2]: 1.18 ± 0.18 | SERPINB3 normalized expression MFI [2]: 2.6 ± 0.69 | SERPINB4 normalized expression MFI [2]: 4.24 ± 1.6 | STAT1 normalized expression MFI [2]: 3049.62 ± 159.5 | STAT3 normalized expression MFI [2]: 1519.61 ± 69.92 | STAT4 normalized expression MFI [2]: 5.41 ± 0.33 | STAT5A normalized expression MFI [2]: 20.71 ± 1.77 | STAT5B normalized expression MFI [2]: 38.42 ± 2.28 | STAT6 normalized expression MFI [2]: 982.62 ± 14.34 | AREG normalized expression MFI [3]: 669.44 ± 30.13 | CCL17 normalized expression MFI [3]: 3.06 ± 0.47 | CCL18 normalized expression MFI [3]: 2.55 ± 0.87 | FLG normalized expression MFI [3]: 65.04 ± 9.31 | IL6 normalized expression MFI [3]: 112.13 ± 3.37 | IL8 normalized expression MFI [3]: 361.05 ± 16.02 | IL17A normalized expression MFI [3]: 0.89 ± 0.16 | IL22 normalized expression MFI [3]: 1.19 ± 0.2 | IL23A normalized expression MFI [3]: 48.11 ± 1.85 | IL31 normalized expression MFI [3]: 1.49 ± 0.35 | ILIA normalized expression MFI [3]: 1194.29 ± 12.27 | JAK1 normalized expression MFI [3]: 193.28 ± 4.55 | JAK2 normalized expression MFI [3]: 95.51 ± 3.13 | JAK3 normalized expression MFI [3]: 0.99 ± 0.15 | LOR normalized expression MFI [3]: 65.94 ± 37.89 | S100A7 normalized expression MFI [3]: 4.3 ± 1.17 | S100A12 normalized expression MFI [3]: 1.48 ± 0.32 | SERPINB3 normalized expression MFI [3]: 3.63 ± 1.32 | SERPINB4 normalized expression MFI [3]: 7.56 ± 3.67 | STAT1 normalized expression MFI [3]: 3028.93 ± 125.19 | STAT3 normalized expression MFI [3]: 1457.24 ± 54.48 | STAT4 normalized expression MFI [3]: 5.32 ± 0.46 | STAT5A normalized expression MFI [3]: 18.44 ± 1.85 | STAT5B normalized expression MFI [3]: 36.56 ± 1.18 | STAT6 normalized expression MFI [3]: 943.66 ± 25.99 | AREG normalized expression MFI [4]: 681.68 ± 16.1 | CCL17 normalized expression MFI [4]: 2.59 ± 0.34 | CCL18 normalized expression MFI [4]: 1.74 ± 0.62 | FLG normalized expression MFI [4]: 68.26 ± 8.04 | IL6 normalized expression MFI [4]: 101.17 ± 2.91 | IL8 normalized expression MFI [4]: 350.6 ± 11.85 | IL17A normalized expression MFI [4]: 0.87 ± 0.13 | IL22 normalized expression MFI [4]: 1.14 ± 0.25 | IL23A normalized expression MFI [4]: 51.86 ± 2.95 | IL31 normalized expression MFI [4]: 1.32 ± 0.34 | ILIA normalized expression MFI [4]: 1151.31 ± 20.01 | JAK1 normalized expression MFI [4]: 182.86 ± 4.07 | JAK2 normalized expression MFI [4]: 91.17 ± 2.15 | JAK3 normalized expression MFI [4]: 0.85 ± 0.15 | LOR normalized expression MFI [4]: 37.49 ± 25.57 | S100A7 normalized expression MFI [4]: 3.95 ± 1.14 | S100A12 normalized expression MFI [4]: 1.06 ± 0.2 | SERPINB3 normalized expression MFI [4]: 2.14 ± 0.67 | SERPINB4 normalized expression MFI [4]: 3.54 ± 1.5 | STAT1 normalized expression MFI [4]: 2977.26 ± 166.85 | STAT3 normalized expression MFI [4]: 1483.1 ± 51.73 | STAT4 normalized expression MFI [4]: 5.04 ± 0.36 | STAT5A normalized expression MFI [4]: 17.64 ± 1.46 | STAT5B normalized expression MFI [4]: 36.34 ± 1.97 | STAT6 normalized expression MFI [4]: 966.51 ± 12.3 | MFI, normalized expression of IYK2 [5]: 283.97 ± 8.59 | MFI, normalized expression of IYK2 [6]: 273.68 ± 7.44 | MFI, normalized expression of IYK2 [7]: 266 ± 6.82 | MFI, normalized expression of IYK2 [8]: 263.49 ± 5.05 | MFI, normalized expression of IYK2 [9]: 205.57 ± 10.87 | MFI, normalized expression of TNF [5]: 24.07 ± 1.43 | MFI, normalized expression of TNF [6]: 26.51 ± 1.84 | MFI, normalized expression of TNF [7]: 25.93 ± 1.59 | MFI, normalized expression of TNF [8]: 24.73 ± 1.29 | MFI, normalized expression of TNF [9]: 2.19 ± 0.56 | MFI, normalized expression of VEGFA [5]: 570.27 ± 10.88 | MFI, normalized expression of VEGFA [6]: 531.53 ± 11.24 | MFI, normalized expression of VEGFA [7]: 514.04 ± 7.46 | MFI, normalized expression of VEGFA [8]: 492.12 ± 8.32 | MFI, normalized expression of VEGFA [9]: 199.88 ± 6.52 | AREG normalized expression MFI [10]: 242.5 ± 16.14 | CCL17 normalized expression MFI [10]: 0.99 ± 0.28 | CCL18 normalized expression MFI [10]: 1.56 ± 0.73 | FLG normalized expression MFI [10]: 211.48 ± 29.55 | IL6 normalized expression MFI [10]: 4.97 ± 0.36 | IL8 normalized expression MFI [10]: 55.48 ± 3.11 | IL17A normalized expression MFI [10]: 0.51 ± 0.1 | IL22 normalized expression MFI [10]: 0.71 ± 0.11 | IL23A normalized expression MFI [10]: 9.42 ± 0.97 | IL31 normalized expression MFI [10]: 0.79 ± 0.2 | ILIA normalized expression MFI [10]: 88.72 ± 5.9 | JAK1 normalized expression MFI [10]: 159.13 ± 7.08 | JAK2 normalized expression MFI [10]: 23.67 ± 0.92 | JAK3 normalized expression MFI [10]: 0.63 ± 0.1 | LOR normalized expression MFI [10]: 19.48 ± 9.66 | S100A7 normalized expression MFI [10]: 4.38 ± 1.15 | S100A12 normalized expression MFI [10]: 0.72 ± 0.18 | SERPINB3 normalized expression MFI [10]: 2.31 ± 0.77 | SERPINB4 normalized expression MFI [10]: 3.37 ± 1.57 | STAT1 normalized expression MFI [10]: 522.12 ± 14.19 | STAT3 normalized expression MFI [10]: 728.97 ± 20.48 | STAT4 normalized expression MFI [10]: 4.01 ± 0.45 | STAT5A normalized expression MFI [10]: 1.44 ± 0.41 | STAT5B normalized expression MFI [10]: 50.91 ± 4.38 | STAT6 normalized expression MFI [10]: 723.56 ± 20.76
